This assay in a line: LOOH formation in glucose-treated model membranes, EPA versus EA and ETE (Example 5). The conditions noted are these: FIG. 8. It is filed as biochemical. On the procedure: An experiment was conducted to compare the ability of EPA to prevent lipid hydroperoxide formation in model membranes treated with glucose to two other 20-carbon fatty acids: eicosanoic acid (“EA,” also referred to as arachidic acid, C20:0) and eicosatrienoic acid (“ETE,” C20:3, n-3). All MLV samples were subjected to time-dependent autoxidation by incubating at 37° C. in an uncovered, shaking water bath. This method allows lipid peroxidation to occur gradually without requiring the use of exogenous initiators. Small aliquots (5-100 μL) of each sample were removed, immediately following MLV preparation (0 hr) and after exposing samples to oxidative conditions for 72 or 96 hr, and combined with 1.0 mL of activated CHOD-iodide color reagent. Aliquot volume was reduced with each successive time point to ensure that spectrophotometric readings were within the optimal adsorption range. Test samples were covered and incubated in darkness at room temperature for at least 4 hr. Sample absorbances were then measured against a CHOD blank at 365 nm using a Beckman DU-640 spectrophotometer. The CHOD colorimetric assay is based on the oxidation of iodide (I^−) by lipid hydroperoxide (LOOH) to form triiodide (I3^−), the quantity of which is directly proportional to the amount of LOOH present in the lipid sample. The molar absorptivity (ε) of I3^− is 2.46×10^4 M^−1 cm^−1 at 365 nm.

As for `CC/C=C\C/C=C\C/C=C\C/C=C\C/C=C\CCCC(=O)O` [EPA, cis-5,8,11,14,17-Eicosapentaenoic acid], the “LOOH formation compared to vehicle, glucose, glucose and EA, glucose and ETE” value is listed as “significantly less LOOH formation”.
